Experimental data published in paper PMC10851555, “Safinamide, an inhibitor of monoamine oxidase, modulates the magnitude, gating, and hysteresis of sodium ion current” (BMC Pharmacology & Toxicology, 2024).
Like-named read-outs stand apart in the source and are kept apart here.

Key:
Assay type in all cases: cell-based, rat
[1] = system: voltage-gated sodium ion (NaV) channels in pituitary GH3 cells; assay: Whole-cell patch-clamp of INa induced by a 30-ms depolarizing pulse (−100 to −10 mV) in GH3 cells; conditions: for reversal of SAF-mediated increase in INa(T): 10 μM added during exposure to SAF (30 μM); for reversal of SAF-mediated increase in INa(T) / effect on magnitude of INa(T): n = 7; for effect on magnitude of INa(T): dopamine or serotonin alone
[2] = system: voltage-gated sodium ion (NaV) channels in pituitary GH3 cells; assay: Whole-cell INa(T) decay during a 1-s, 20-Hz train of depolarizing pulses in GH3 cells; conditions: for effect on SAF-induced increase in decaying time constant of INa(T): 10 μM added in the presence of 10 μM SAF; for decaying time constant of INa(T) during train of depolarizing pulses: 10 μM alone, control 66 ± 5 ms, n = 7
Experimental: Shortly before experiments, GH3 was carefully suspended in normal Tyrode’s solution at room temperature (20–25 °C). A few drops of the suspension containing cell clumps were immediately added to a custom-built chamber on the stage of an inverted Diaphot-200 microscope (Nikon, Tokyo, Japan). Pipettes were pulled from Kimax-51 soft-glass capillaries (#34500-99; Kimble, Vineland, NJ) by using a Narishige PP-830 Vertical Puller (Tokyo, Japan), and their tips were fire-polished using a microforge (MF-83, Narishige). During the measurements, an electrode with a tip resistance of 2–4 MΩ, which was tightly inserted into a holder, was maneuvered using a WR-98 micromanipulator (Narishige). Patch-clamp experiments were performed in the voltage-clamp mode with either cell-attached or whole-cell configuration (rupturing of the membrane patch after GΩ formation) by using a RK-400 Patch-Clamp Amplifier (Bio-Logic, Claix, France) connected to a laptop. Shortly before GΩ formation, potential correction was performed for a liquid junction potential, which developed at the electrode’s tip because of the difference in the compositions of the internal and bath solutions.
SAF is efficacious as an add-on therapy following subthalamic nucleus deep brain stimulation in patients with Parkinson’s disease. Therefore, we investigated whether SAF could modify the inactivation of currents induced by a train of depolarizing stimuli. The test cells were maintained at −80 mV and subjected to repetitive depolarization to −10 mV (40 ms per pulse; rate of 20 Hz; duration of 1 s). Similar to the findings of relevant studies, during the control period (the absence of SAF), INa(T) inactivation was noticed to be induced by 1 s of repetitive depolarization stimuli (−80 to −10 mV) with a decaying time constant of 65 ± 4 ms (n = 7; Fig. 6A, 6B and 6C). […] In the presence of 3 and 10 μM SAF, the exponential time course of INa(T) induced by the same train of depolarizing pulses was longer at 107 ± 5 ms (n = 7, P < 0.05) and 124 ± 6 ms (n = 7, P < 0.05), respectively. Furthermore, as MGB and ranolazine have been reported to suppress the amplitude of INa effectively, we added ranolazine (Ran; 10 μM) and mirogabalin (MGB; 10 μM) separately in the presence of 10 μM SAF. […] The application of Ran (10 μM) or MGB (10 μM) alone decreased the decaying time constant of INa(T) during the same train of depolarizing pulses to 39 ± 4 ms (n = 7, P < 0.05) or 42 ± 4 ms (n = 7, P < 0.05), respectively, from a control value of 66 ± 5 ms (n = 7). Thus, in addition to increasing the magnitude of INa(T), SAF prominently affects the decaying of INa(T) subjected to a 1-s train of depolarizing pulses.
Fig. 6 Effect of SAF on INa(T) decay induced by a train of depolarizing pulses in GH3 cells. The train of pulses comprised twenty 40-ms pulses (voltage increased to −10 mV) with 10-ms intervals at −80 mV for a total duration of 1 s. (A) Current traces during the control period (a, blue) and during exposure to 10 μM SAF (b, red). The voltage-clamp protocol used is indicated atop the current traces. In panel A, the third graphs (blue and red) from the top are the expanded forms of the second graphs (brown dashed boxes). (B) The relative amplitude of INa(T) versus pulse train duration in the absence (blue open circles) and presence (red open squares) of 10 μM SAF (mean ± standard error of the mean; n = 7 for each point). The INa(T) amplitudes were normalized by dividing the current amplitudes at the end of each pulse-train stimulation by those obtained at the beginning of the pulse train stimulation. The gray continuous lines on which the data points are overlaid are reliably fitted with a single exponential.

[3] = system: voltage-gated sodium ion (NaV) channels in pituitary GH3 cells; assay: Window INa [INa(W)] induced by ascending ramp voltage (−100 to +40 mV over 200 ms) in GH3 cells; conditions: Ran 10 μM added in the presence of SAF 10 μM
Description: The sigmoidal relationship between Vramp-induced INa(W) and the upsloping Vramp (nonlinear current–voltage relationship) was investigated and fitted with the Boltzmann function as follows: [drawing 2]
where V is the membrane potential in millivolts, Erev is the reversal potential of INa, G is the INa conductance in nanosiemens, I is the current, Vh is the voltage at which half-maximal activation or inactivation of the current occurs, q is the apparent gating charge, F is Faraday’s constant, R is the universal gas constant, and T is the absolute temperature.
The free energy ∆G0 for the gating of INa(W) was determined by assuming a two-state gating model [equilibrium between closed (resting) and open states] of the NaV channel. The ∆G0 for the activation of INa(W) at 0 mV could be calculated as follows: q × F × V1/2 [45, 46]. The standard errors in ∆G0 ( [drawing 3] ) could be calculated as follows: […]
In the present study, we investigated whether the addition of SAF to GH3 cells modulates the magnitude of INa(W) induced by ascending Vramp. Test cells were maintained at −80 mV and subjected to Vramp ascending from −100 to +40 mV over 200 ms (i.e., ramp speed of 0.7 mV/ms) to induce INa(W). […] The ∆area values of INa(W) in the absence and presence of SAF and SAF plus Ran were calculated (Fig. 7B).
Fig. 7 Stimulatory effects of SAF on window INa [INa(W)] induced by an ascending ramp voltage Vramp in GH3 cells. For the experiments, the test cells were maintained at −80 mV and subjected to Vramp ranging from −100 to +40 mV over 200 ms (ramp speed of 0.7 mV/ms). (A) INa(W) trace in the absence (a, blue) and presence (b, red) of 10 μM SAF. The inset indicates the Vramp protocol, and the downward deflection indicates inward-directed current. The continuous gray lines corresponding to the untreated or SAF-treated (10 μM) cells were fitted (least-squares minimization) with the Boltzmann equation. The values of […] and q (apparent gating charge) induced by ascending Vramp over 200 ms in the absence (blue) of SAF were, respectively, −34 mV and 2.1 e; the corresponding values in the presence (red) of 10 μM SAF were −38 mV and 2.8 e, respectively. (B) Summary graph illustrating the effects of SAF (3 and 10 μM) and SAF (10 μM) plus Ran (10 μM) on the Δarea of INa(W) in GH3 cells (mean ± standard error of the mean; n = 7 for each point). The value of Δarea was measured at a voltage ranging from −80 and +40 mV, which corresponded to INa(W) induced by the ascending Vramp. […] (C) Summary graph illustrating the effects of SAF (3 and 10 μM) and SAF plus Ran (10 μM) on ΔG0 (mean ± standard error of the mean; n = 7 for each point). The estimation of ΔG0 for the induction of instantaneous INa(W) is described in the Materials and Methods section.

[4] = system: single NaV channels in GH3 cells; assay: Cell-attached single-channel NaV current recordings in GH3 cells; conditions: n = 7
Experimental: The composition of the external or bath solution [4-(2-hydroxyethyl)-1-piperazineethanesulfonic acid (HEPES)-buffered normal Tyrode’s solution] was as follows: 136.5 mM NaCl, 1.8 mM CaCl2, 5.4 mM KCl, 0.53 mM MgCl2, 5.5 mM glucose, and 5.5 mM HEPES–NaOH (pH 7.4). To measure K^+ currents (data not shown), we filled a patch pipette with an internal solution comprising 140 mM KCl, 1 mM MgCl2, 3 mM adenosine 5′-triphosphate disodium salt, 0.1 mM guanosine 5′-triphosphate disodium salt, 0.1 mM ethylene glycol tetraacetic acid, and 5 mM HEPES–KOH buffer (pH 7.2). To record the whole-cell INa, the K^+ in the internal solution was substituted with Cs^+, and the pH of the solution was adjusted to 7.2 by adding cesium hydroxide. In the single-channel experiments performed to record NaV currents, the pipette was filled with a Na^+-rich solution containing 136 mM NaCl, 0.53 mM MgCl2, 5.5 mM glucose, and 5.5 mM HEPES–NaOH (pH 7.2). The bath medium was a K^+-rich solution comprising 130 mM KCl, 10 mM NaCl, 3 mM MgCl2, 6 mM glucose, and 10 mM HEPES-KOH (pH 7.4). The solutions and culture media were generally filtered on the day of use by using sterile Acrodisc Syringe Filters containing a 0.2-μm Supor Membrane (Bio-Check; New Taipei City, Taiwan).
Single-channel NaV currents induced by depolarizing pulses ranging from −100 to −10 mV were measured and subsequently analyzed using pCLAMP 10.7. The opening events of the channels were generally evaluated through multi-Gaussian adjustments of the distribution of amplitude across channels. Functional independence between channels was determined by comparing the observed stationary probabilities with the values calculated based on the binomial law. For dwell-time analyses, only a single channel was used in the patch-clamp experiment.
To elucidate the mechanisms underlying the effects of SAF on the magnitude of INa, we investigated the actions of SAF and SAF plus MGB on single-channel NaV currents. This experiment was performed using the cell-attached configuration of the voltage-clamp test. Test cells were placed in K^+-rich solution, and the recording pipette was filled with Na^+-rich solution. SAF (10 μM) increased channel activity and decelerated current inactivation when the cells were exposed to depolarization stimuli ascending from –100 to –10 mV (rate of 0.1 Hz; Fig. 9A). Furthermore, the addition of MGB (10 μM) in the presence of 10 μM SAF reduced the probability of channel opening. […] Moreover, with the presence of 10 μM SAF, the mean open time of NaV channels was prolonged to […] (n = 7, P < 0.05) msec from a control value of 2.3 ± 0.3 msec (n = 7). […] Consistent with these findings, the mean open time of the NaV channel in the presence of 10 μM SAF (5.9 ± 1.1 ms; n = 7; P < 0.05) was longer than that in the control period (2.3 ± 0.3 ms, n = 7); the subsequent further addition of 10 μM MGB decreased the mean open time to 3.7 ± 0.7 ms (n = 7, P < 0.05) (Fig. 9B). […] MGB added during SAF exposure reversed the SAF-induced increase in NaV channel activity.

[5] = 10 μM MGB added in the presence of 10 μM SAF

## NCCc1c[nH]c2ccc(O)cc12 [serotonin]
[1]
  reversal of SAF-mediated increase in INa(T): neither dopamine nor serotonin reversed the SAF-mediated increase in INa(T)
  effect on magnitude of INa(T): neither dopamine nor serotonin altered the magnitude of INa(T)

## Cc1c(F)c(F)c(COC(=O)[C@@H]2[C@H](/C=C(\Cl)C(F)(F)F)C2(C)C)c(F)c1F (racemic) [Tef, tefluthrin]
[1]; 10 μM
  effect on rapid inward current (INa) induced by short depolarizing pulse: stimulated

## COc1ccccc1OCC(O)CN1CCN(CC(=O)Nc2c(C)cccc2C)CC1 (stereo not drawn) [Ran, ranolazine]
[2]
  effect on SAF-induced increase in decaying time constant of INa(T): effectively attenuated the SAF-induced increase in the decaying time constant
  decaying time constant of INa(T) during train of depolarizing pulses: 39 ± 4 ms
[3]
  effect on SAF-mediated increase in ∆G0 of INa(W): effectively attenuated the SAF-mediated increase in ∆G0
  effect on SAF-mediated increase in ∆area of INa(W): reversed the SAF-mediated increase

## NCCc1ccc(O)c(O)c1 [dopamine]
[1]
  reversal of SAF-mediated increase in INa(T): neither dopamine nor serotonin reversed the SAF-mediated increase in INa(T)
  effect on magnitude of INa(T): neither dopamine nor serotonin altered the magnitude of INa(T)

## C/C=C/C1C(C(=O)OCc2c(F)c(F)c(COC)c(F)c2F)C1(C)C (stereo not drawn) [metofluthrin]
[1]; 10 μM
  effect on rapid inward current (INa) induced by short depolarizing pulse: stimulated

## NC1=N[C@H](O)[C@H]2[C@H]3O[C@]4(O)O[C@@H]([C@@H](O)[C@@]2(N1)[C@@H]4O)[C@]3(O)CO [TTX, tetrodotoxin]
[1]
  amplitude of INa(L): 2 ± 1 pA
  amplitude of INa(T): 18 ± 2 pA
  effect on rapid inward current (INa) induced by short depolarizing pulse: blocked

## CCC1=C[C@@H]2[C@H](C1)C[C@]2(CN)CC(=O)O [MGB, mirogabalin]
[2]
  effect on SAF-induced increase in decaying time constant of INa(T): effectively attenuated the SAF-induced increase in the decaying time constant
  decaying time constant of INa(T) during train of depolarizing pulses: 42 ± 4 ms
[4]; [5]
  mean open time of the NaV channel: 3.7 ± 0.7 ms
  open-state probability of the NaV channel: 0.041 ± 0.007
[4]; SAF plus MGB, control 2.01 ± 0.35 pA
  amplitude of the single-channel current: 2.00 ± 0.44 pA
